According to US20110294842A9, “SPIRO (FURO [3, 2-C] PYRIDINE-3-3' -INDOL) -2' (1'H)-ONE DERIVATIVES AND RELATED COMPOUNDS FOR THE TREATMENT OF SODIUM-CHANNEL MEDIATED DISEASES, SUCH AS PAIN” (Xenon Pharmaceuticals Inc., priority 2006, published 2011):

Columns and labels:
sodium channel = test: Guanidine influx assay (in vitro); type: cell-based, human or rat; conditions: known cell line that expresses a sodium channel; read-out: IC50 Activity Level
Source text: This example describes an in vitro assay for testing and profiling test agents against human or rat sodium channels stably expressed in cells of either an endogenous or recombinant origin. The assay is also useful for determining the IC-50 of a sodium channel blocking compound. The assay is based on the guanidine flux assay described by Reddy, N. L., et al., J Med Chem (1998), 41(17):3298-302.
The guanidine influx assay is a radiotracer flux assay used to determine ion flux activity of sodium channels in a high-throughput microplate-based format. The assay uses ^14C-guanidine hydrochloride in combination with various known sodium channel modulators, to assay the potency of test agents. Potency is determined by an IC-50 calculation. Selectivity is determined by comparing potency of the compound for the channel of interest to its potency against other sodium channels (also called ‘selectivity profiling’).
Each of the test agents is assayed against cells that express the channels of interest. Voltage gated sodium channels are either TTX sensitive or insensitive. This property is useful when evaluating the activities of a channel of interest when it resides in a mixed population with other sodium channels. The following Table 1 summarizes cell lines useful in screening for a certain channel activity in the presence or absence of TTX.
Cells expressing the channel of interest are grown according to the supplier or in the case of a recombinant cell in the presence of selective growth media such as G418 (Gibco/Invitrogen). The cells are disassociated from the culture dishes with an enzymatic solution (1×) Trypsin/EDTA (Gibco/Invitrogen) and analyzed for density and viability using haemocytometer (Neubauer). Disassociated cells are washed and resuspended in their culture media then plated into Scintiplates (Beckman Coulter Inc.) (approximately 100,000 cells/well) and incubated at 37° C./5% CO2 for 20-24 hours. After an extensive wash with Low sodium HEPES-buffered saline solution (LNHBSS) (150 mM Choline Chloride, […] (Sigma), 1 mM Calcium Chloride, 5 mM Potassium Chloride, 1 mM Magnesium Chloride, 10 mM Glucose) agents diluted with LNHBSS are added to each well. (Varying concentrations of test agent may be used). The activation/radiolabel mixture contains aconitine (Sigma), and ^14C-guanidine hydrochloride (ARC).
After loading the cells with test agent and activation/radiolabel mixture, the Scintiplates are incubated at ambient temperature. Following the incubation, the Scintplates are extensively washed with LNHBSS supplemented with guanidine (Sigma). The Scintiplates are dried and then counted using a Wallac MicroBeta TriLux (Perkin-Elmer Life Sciences). The ability of the test agent to block sodium channel activity is determined by comparing the amount of ^14C-guanidine present inside the cells expressing the different sodium channels.
IC-50 value of a test agent for a specific sodium channel may be determined using the above general method. IC-50 may be determined using a 3, 8, 10, 12 or 16 point curve in duplicate or triplicate with a starting concentration of 1, 5 or 10 μM diluted serially with a final concentration reaching the sub-nanomolar, nanomolar and low micromolar ranges. Typically the mid-point concentration of test agent is set at 1 μM, and sequential concentrations of half dilutions greater or smaller are applied (e.g. 0.5 μM; 5 μM and 0.25 μM; 10 μM and 0.125 μM; 20 μM etc.). The IC-50 curve is calculated using the 4 Parameter Logistic Model or Sigmoidal Dose-Response Model formula (fit=(A+((B−A)/(1+((C/×)̂ D)))).
The Synthetic Example numbers provided in Table 2 correspond to the Synthetic Examples herein: […]

PC12 (Nav1.2) = PC12 (Nav1.2) (Rattus norvegicus, UniProt P04775)
CHO-K1 (Nav1.4) = type: cell-based, Chinese Hamster
SK-N-BE2C (NaV1.8) = SK-N-BE2C (NaV1.8) (Homo sapiens, UniProt Q9Y5Y9); type: cell-based
L6 (Nav1.4 and 1.5) = type: cell-based, rat

PC12 (Nav1.2), sequence (P04775 whole entry, looked up): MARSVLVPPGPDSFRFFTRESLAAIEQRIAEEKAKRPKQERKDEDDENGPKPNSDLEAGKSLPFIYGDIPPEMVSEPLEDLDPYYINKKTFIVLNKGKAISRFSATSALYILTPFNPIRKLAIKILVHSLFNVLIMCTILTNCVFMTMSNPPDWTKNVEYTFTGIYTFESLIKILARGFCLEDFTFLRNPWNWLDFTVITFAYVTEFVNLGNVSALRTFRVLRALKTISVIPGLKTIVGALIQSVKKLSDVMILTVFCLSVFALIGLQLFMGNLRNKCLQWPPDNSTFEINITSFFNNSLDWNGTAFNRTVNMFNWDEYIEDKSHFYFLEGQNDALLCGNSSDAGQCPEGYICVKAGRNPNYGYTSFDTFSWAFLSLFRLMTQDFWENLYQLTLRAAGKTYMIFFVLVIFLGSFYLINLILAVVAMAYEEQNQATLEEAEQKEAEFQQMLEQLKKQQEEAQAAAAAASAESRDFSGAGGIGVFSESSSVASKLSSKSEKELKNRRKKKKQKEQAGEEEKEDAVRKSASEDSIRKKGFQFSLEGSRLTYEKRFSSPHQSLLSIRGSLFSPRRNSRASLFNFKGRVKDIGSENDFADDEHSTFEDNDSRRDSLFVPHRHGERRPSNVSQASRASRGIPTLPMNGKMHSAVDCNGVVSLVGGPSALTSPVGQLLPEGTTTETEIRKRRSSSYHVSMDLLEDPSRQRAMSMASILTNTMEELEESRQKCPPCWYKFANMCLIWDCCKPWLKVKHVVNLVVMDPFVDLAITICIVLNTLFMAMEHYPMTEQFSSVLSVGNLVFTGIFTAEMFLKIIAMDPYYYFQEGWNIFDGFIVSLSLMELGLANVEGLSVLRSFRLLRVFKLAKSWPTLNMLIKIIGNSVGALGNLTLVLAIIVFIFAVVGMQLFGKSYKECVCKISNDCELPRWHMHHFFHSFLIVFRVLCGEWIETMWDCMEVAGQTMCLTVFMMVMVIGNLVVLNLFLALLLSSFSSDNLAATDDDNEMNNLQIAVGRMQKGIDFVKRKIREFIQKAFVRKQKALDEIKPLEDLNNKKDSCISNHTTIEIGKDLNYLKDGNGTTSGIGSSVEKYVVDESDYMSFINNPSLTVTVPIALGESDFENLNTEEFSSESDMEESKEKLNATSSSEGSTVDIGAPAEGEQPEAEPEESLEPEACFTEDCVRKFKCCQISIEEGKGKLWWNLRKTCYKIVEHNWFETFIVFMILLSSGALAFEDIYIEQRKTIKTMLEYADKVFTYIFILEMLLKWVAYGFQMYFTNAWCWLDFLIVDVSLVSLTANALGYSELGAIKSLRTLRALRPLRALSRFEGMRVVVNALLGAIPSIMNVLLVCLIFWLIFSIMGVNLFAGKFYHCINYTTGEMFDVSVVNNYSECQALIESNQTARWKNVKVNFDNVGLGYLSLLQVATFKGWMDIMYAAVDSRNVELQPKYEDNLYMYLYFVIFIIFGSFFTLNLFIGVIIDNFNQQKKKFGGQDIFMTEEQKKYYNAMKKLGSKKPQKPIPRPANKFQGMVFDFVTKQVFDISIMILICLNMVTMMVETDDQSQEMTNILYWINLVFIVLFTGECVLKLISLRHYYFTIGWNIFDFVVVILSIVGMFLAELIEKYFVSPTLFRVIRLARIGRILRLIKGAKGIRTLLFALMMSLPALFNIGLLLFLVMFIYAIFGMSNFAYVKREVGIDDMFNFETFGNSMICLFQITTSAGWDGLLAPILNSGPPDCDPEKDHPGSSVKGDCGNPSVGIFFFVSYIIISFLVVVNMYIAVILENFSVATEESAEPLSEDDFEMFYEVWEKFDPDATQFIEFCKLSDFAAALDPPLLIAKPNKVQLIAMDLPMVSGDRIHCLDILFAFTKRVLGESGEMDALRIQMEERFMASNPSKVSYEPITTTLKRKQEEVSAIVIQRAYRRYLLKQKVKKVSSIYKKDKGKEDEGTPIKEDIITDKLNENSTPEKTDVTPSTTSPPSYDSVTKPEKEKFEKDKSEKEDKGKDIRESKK
SK-N-BE2C (NaV1.8), sequence (Q9Y5Y9 whole entry, looked up): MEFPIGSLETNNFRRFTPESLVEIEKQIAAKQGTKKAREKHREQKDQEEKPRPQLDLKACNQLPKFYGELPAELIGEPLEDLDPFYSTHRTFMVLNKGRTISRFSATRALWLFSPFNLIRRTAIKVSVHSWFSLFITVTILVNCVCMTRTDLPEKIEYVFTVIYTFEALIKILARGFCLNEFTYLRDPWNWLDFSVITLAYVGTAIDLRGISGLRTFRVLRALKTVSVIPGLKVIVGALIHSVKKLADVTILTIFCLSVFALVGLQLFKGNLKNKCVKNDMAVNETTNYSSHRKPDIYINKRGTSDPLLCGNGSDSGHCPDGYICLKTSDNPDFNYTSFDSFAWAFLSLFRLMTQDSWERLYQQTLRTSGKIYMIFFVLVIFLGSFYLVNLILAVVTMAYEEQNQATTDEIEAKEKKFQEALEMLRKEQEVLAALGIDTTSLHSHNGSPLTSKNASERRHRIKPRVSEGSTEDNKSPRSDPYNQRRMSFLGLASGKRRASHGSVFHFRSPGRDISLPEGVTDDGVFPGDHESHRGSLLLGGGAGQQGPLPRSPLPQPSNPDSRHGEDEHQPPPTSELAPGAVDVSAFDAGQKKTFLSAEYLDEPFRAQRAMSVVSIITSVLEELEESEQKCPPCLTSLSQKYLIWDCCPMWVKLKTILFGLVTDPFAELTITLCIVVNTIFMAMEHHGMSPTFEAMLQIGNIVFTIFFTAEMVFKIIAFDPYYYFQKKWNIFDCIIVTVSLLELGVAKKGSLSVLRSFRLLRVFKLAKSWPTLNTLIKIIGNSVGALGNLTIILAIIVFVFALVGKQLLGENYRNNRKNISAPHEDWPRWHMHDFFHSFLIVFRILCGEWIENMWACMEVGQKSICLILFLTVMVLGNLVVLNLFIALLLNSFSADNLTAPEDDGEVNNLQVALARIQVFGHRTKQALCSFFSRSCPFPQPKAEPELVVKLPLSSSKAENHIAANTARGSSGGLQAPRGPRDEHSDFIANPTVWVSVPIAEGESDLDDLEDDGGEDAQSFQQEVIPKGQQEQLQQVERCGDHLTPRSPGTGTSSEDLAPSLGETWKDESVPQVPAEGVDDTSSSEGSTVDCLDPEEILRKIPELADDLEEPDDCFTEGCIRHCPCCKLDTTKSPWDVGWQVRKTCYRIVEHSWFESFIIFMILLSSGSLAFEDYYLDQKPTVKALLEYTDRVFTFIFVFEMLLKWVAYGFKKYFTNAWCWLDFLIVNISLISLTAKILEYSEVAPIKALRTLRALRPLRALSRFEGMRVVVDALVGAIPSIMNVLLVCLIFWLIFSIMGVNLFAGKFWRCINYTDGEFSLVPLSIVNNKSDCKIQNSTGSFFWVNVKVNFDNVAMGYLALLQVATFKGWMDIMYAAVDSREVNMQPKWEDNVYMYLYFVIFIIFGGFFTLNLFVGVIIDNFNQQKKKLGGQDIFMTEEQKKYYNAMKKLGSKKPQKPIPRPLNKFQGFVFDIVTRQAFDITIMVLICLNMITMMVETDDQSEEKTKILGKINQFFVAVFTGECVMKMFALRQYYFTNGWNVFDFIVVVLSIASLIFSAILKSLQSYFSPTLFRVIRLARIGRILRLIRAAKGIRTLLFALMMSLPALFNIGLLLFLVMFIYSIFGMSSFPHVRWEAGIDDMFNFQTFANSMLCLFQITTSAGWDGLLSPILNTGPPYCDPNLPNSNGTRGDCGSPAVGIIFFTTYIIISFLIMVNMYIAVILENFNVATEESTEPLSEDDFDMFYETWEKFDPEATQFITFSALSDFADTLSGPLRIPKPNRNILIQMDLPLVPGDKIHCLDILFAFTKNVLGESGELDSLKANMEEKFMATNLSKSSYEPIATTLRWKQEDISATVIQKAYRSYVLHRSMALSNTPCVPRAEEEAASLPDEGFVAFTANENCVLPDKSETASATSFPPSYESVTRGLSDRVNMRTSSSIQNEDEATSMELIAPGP

Row | Structure (SMILES) | IC50 (sodium channel) [µM] | melting point [°C] | further results
1 | CCCCCN1C(=O)C2(COc3ccncc32)c2ccccc21 (stereo not shown) [Example 1] | 0.1 to 1 |  | 
2 | CCCCCN1C(=O)C2(COc3ccncc32)c2ccccc21 (stereo not shown) [Example 2] | ≥ 1 |  | 
3 | CCCCCN1C(=O)C2(COc3cc[nH]c(=O)c32)c2ccccc21 (stereo not shown) [Example 3] | ≥ 1 |  | 
4 | COc1ccc2c(n1)C1(CO2)C(=O)N(Cc2ccc(C(F)(F)F)o2)c2cccc(Br)c21 (stereo not shown) [Example 4] | 0.01 to 0.1 |  | 
5 | COc1ccc2c(n1)C1(CO2)C(=O)N(Cc2ccc(C(F)(F)F)o2)c2ccccc21 (stereo not shown) [Example 5] | 0.1 to 1 |  | 
6 | O=C1N(Cc2ccc(C(F)(F)F)o2)c2ccccc2C12COc1cc3c(nc12)OCO3 (stereo not shown) [Example 8] | 0.001 to 0.01 |  | 
7 | COc1ccc2c(n1)C1(CO2)C(=O)N(Cc2ccc(C(F)(F)F)o2)c2ccc(F)cc21 (stereo not shown) [Example 10] | ≥ 1 |  | 
8 | COc1ccc2c(n1)C1(CO2)C(=O)N(Cc2ccc(C(F)(F)F)o2)c2cccc(Cl)c21 (stereo not shown) [Example 11] | 0.1 to 1 |  | 
9 | COc1ccc2c(n1)C1(CO2)C(=O)Nc2cccc(Br)c21 (stereo not shown) [Example 12] | 0.1 to 1 |  | 
10 | COc1ccc2c(n1)C1(CO2)C(=O)Nc2ccccc21 (stereo not shown) [Example 13] | ≥ 1 | 199 to 200 | 
11 | COc1ccc2c(n1)C1(CO2)C(=O)N(Cc2ccc(Cl)s2)c2ccccc21 (stereo not shown) [Example 15] | 0.01 to 0.1 |  | 
12 | COc1ccc2c(n1)C1(CO2)C(=O)N(Cc2csc(C(C)C)n2)c2ccccc21 (stereo not shown) [Example 16] | 0.01 to 0.1 | 136 to 138 | 
13 | COc1ccc2c(n1)C1(CO2)C(=O)N(Cc2ccccn2)c2ccccc21 (stereo not shown) [Example 17] | 0.1 to 1 |  | 
14 | COc1ccc2c(n1)C1(CO2)C(=O)N(CC(=O)Nc2ccccc2F)c2ccccc21 (stereo not shown) [Example 18] | 0.1 to 1 |  | 
15 | COc1ccc2c(n1)C1(CO2)C(=O)N(Cc2ncc(Cl)n2C)c2ccccc21 (stereo not shown) [Example 19] | 0.1 to 1 | 169 to 171 | 
16 | COc1ccc2c(n1)C1(CO2)C(=O)N(CC2CCN(C)CC2)c2ccccc21 (stereo not shown) [Example 22] | ≥ 1 | 58 to 62 | 
17 | COc1cc2c(cn1)OCC21C(=O)N(Cc2ccc(C(F)(F)F)o2)c2ccccc21 (stereo not shown) [Example 23] | 0.001 to 0.01 |  | 
18 | COc1cc2c(cn1)OCC21C(=O)N(C(c2ccccc2)c2ccccc2)c2ccccc21 (stereo not shown) [Example 24] | ≥ 1 |  | 
19 | COc1cc2c(cn1)OCC21C(=O)Nc2ccccc21 (stereo not shown) [Example 25] | 0.1 to 1 |  | 
20 | COc1cc2c(cn1)OCC21C(=O)N(CC2CCOCC2)c2ccccc21 (stereo not shown) [Example 26] | 0.1 to 1 |  | 
21 | COc1cc2c(cn1)OCC21C(=O)N(C[C@@H]2CCCO2)c2ccccc21 (stereo partly shown) [Example 27] | 0.01 to 0.1 |  | 
22 | COc1cc2c(cn1)OCC21C(=O)N(C[C@H]2CCCO2)c2ccccc21 (stereo partly shown) [Example 28] | 0.01 to 0.1 |  | 
23 | COc1ccc2c(n1)C1(CO2)C(=O)N(Cc2ccc(C(F)(F)F)o2)c2ccccc21 (stereo not shown) [Synthetic Example 5, 5-methoxy-1′-{[5-(trifluoromethyl)-2-furyl]methyl}spiro[furo[3,2-b]pyridine-3,3′-indol]-2′(1′H)-one] |  | 145 to 147 | 
24 | O=C1N(Cc2ccc(C(F)(F)F)o2)c2ccccc2C12COc1ccc(=O)[nH]c12 (stereo not shown) [Synthetic Example 7, 1′-{[5-(trifluoromethyl)-2-furyl]methyl}spiro[furo[3,2-b]pyridine-3,3′-indole]-2′,5(1′H,4H)-dione] |  | 175 to 177 | 
25 | O=C1N(Cc2ccc(C(F)(F)F)o2)c2ccccc2C12COc1cc3c(nc12)OCO3 (stereo not shown) [Synthetic Example 8, 1′-{[5-(trifluoromethyl)-2-furyl]methyl}spiro[1,3-dioxolo[4,5-b]furo[2,3-e]pyridine-5,3′-indol]-2′(1′H)-one] |  | 175 to 177 | 
26 | COc1ccc2c(n1)C1(CO2)C(=O)N(Cc2ccc(C(F)(F)F)o2)c2ccc(F)cc21 (stereo not shown) [Synthetic Example 10, 5′-fluoro-5-methoxy-1′-{[5-(trifluoromethyl)-2-furyl]methyl}spiro[furo[3,2-b]pyridine-3,3′-indol]-2′(1′H)-one] |  | 158 to 160 | 
27 | COc1ccc2c(n1)C1(CO2)C(=O)Nc2cccc(Br)c21 (stereo not shown) [Synthetic Example 12, 4′-bromo-5-methoxyspiro[furo[3,2-b]pyridine-3,3′-indol]-2′(1′H)-one] |  | 265 to 268 | 
28 | COc1cc2c(cn1)OCC21C(=O)Nc2ccccc21 (stereo not shown) [Synthetic Example 25, 5-methoxyspiro[furo[2,3-c]pyridine-3,3′-indol]-2′(1′H)-one] |  | 231 to 232 | 
29 | COc1cc2c(cn1)OCC21C(=O)N(CC2CCOCC2)c2ccccc21 (stereo not shown) [Synthetic Example 26, 5-methoxy-1′-(tetrahydro-2H-pyran-4-ylmethyl)spiro[furo[2,3-c]pyridine-3,3′-indol]-2′(1′H)-one] |  | 84 to 85 | 
30 | NC1=N[C@H](O)[C@H]2[C@H]3O[C@]4(O)O[C@@H]([C@@H](O)[C@@]2(N1)[C@@H]4O)[C@]3(O)CO [TTX, tetrodotoxin] |  |  | block of [14C] guanidine influx (PC12 (Nav1.2)): Guanidine influx was completely; block of [14C] guanidine influx (CHO-K1 (Nav1.4)): Guanidine influx was completely; block of [14C] guanidine influx (SK-N-BE2C (NaV1.8)): TTX partially blocked influx; block of [14C] guanidine influx (L6 (Nav1.4 and 1.5)): partially blocked by TTX (Nav1.5
